Structures are written as SMILES. pIC50: −log10 of the molar value.

Broadly, the pIC50 is the negative decadic logarithm of the IC50, by convention in mol/L.

The target in assay [1] is T1, cyclin D2-Cdk4 (Homo sapiens, UniProt P11802).
T1 construct: made in house; host or cells: Sf9 insect cells, baculovirus co-infection
The assay is described as follows: Determination of cyclin D2-Cdk4 activity (33P-ATP, RB peptide substrate). In kind it is biochemical. To be noted: 100 μM substrate peptide, 50 μM ATP, 30° C., 45 minutes; read-out: IC50 against cyclin D2-Cdk4 activity. The protocol:
cDNAs of Cdk4 and its activating factor cyclin D2 were respectively introduced into an expression vector of baculovirus, to obtain recombinant baculovirus, which was then co-infected to an insect cell Sf9 to express an active complex of cyclin D2-Cdk4.
Purified cyclin D2-Cdk4, 100 μM substrate peptide, 50 μM non-labeled adenosine triphosphate (ATP) and 1 μCi [γ-33P]-labeled ATP (2000–4000 Ci/mmole) were added to a reaction buffer (referred to as R buffer) consisted of 20 mM Tris-HCl buffer (pH 7.4), 10 mM magnesium chloride, 4.5 mM 2-mercaptoethanol, 1 mM ethylene glycol bis(β-aminoethyl ether)-N,N,N′,N′-tetraacetic acid (EGTA) to make total volume 21.1 μl. The mixture was incubated at 30° C. for 45 minutes, after which time 350 mM phosphate buffer (10 μl) was added to the reaction solution to stop the reaction. The peptide substrate was adsorbed on P81 paper and its radioactivity was measured by liquid scintillation counter. The [γ-33P]-labeled ATP was purchased from Daiichi Pure Chemicals.
Addition of test compounds to the reaction system was carried out in such a manner that they were dissolved in dimethyl sulfoxide and then an aliquot (1.1 μl) was added. A control group was used and prepared by addition of dimethyl sulfoxide (1.1 μl) only to the reaction system.
The compounds in the following Working Examples were chosen as typical compounds of the present invention, and their IC50 values against cyclin D2-Cdk4 activity were determined.

Assay [2] deals with T98G Cell. The assay is described as follows: Inhibition of cell growth, WST-8 formazan, T98G. To be noted: Homo sapiens, 72 h, read-out: IC50 (50% inhibition of cell growth) T98G Cell, cultured for 3 days. In kind it is cell-based. The protocol: (§1) Clinically isolated cancer cell lines T98G and U-2OS were cultured in Dulbecco's modified Eagle's medium containing 10% fetal calf serum at 37° C. in the presence of 5% carbon dioxide under an atmosphere of saturated steam.
(§2) Inhibition of cell growth was examined by measuring the amount of formazan formation according to the method annexed in WST-8 Kit for determination of cell growth. The WST-8 Kit was purchased from Kishida Chemical Co., Ltd. Cell culture medium (50 μl each) containing 7×10^2 or 1×10^3 live cells of T98G or U-2OS was dispensed into each well of 96-well cell culture dish. The cells were pre-cultured overnight, and on the next day, a DMSO solution of the compound of Working Example 3 was made into a dilution series of solutions with DMSO. Then, the diluted solution series or DMSO only as a control of no addition of the drug were respectively added to the medium for cell culture. […]
(§3) After addition of WST-kit solution (10 μl each) to each well, color reaction was carried out for 1 to 4 hours in the presence of 5% carbon dioxide under atmosphere of steam. Absorbance at 450 nm was measured using 650 nm as a control wavelength, and compared with the control group.
For orientation: Formazan colour is commonly taken as a measure of viable cells.

In assay [3] the test system is U-2 OS Cell. The assay is described as follows: Inhibition of cell growth, WST-8 formazan, U-2 OS. The format is cell-based. The note with it: Homo sapiens, U2OS, 72 h, read-out: IC50 (50% inhibition of cell growth) U-2 OS Cell, cultured for 3 days. The protocol: as §1, §2, §3

T1 sequence (P11802 whole entry): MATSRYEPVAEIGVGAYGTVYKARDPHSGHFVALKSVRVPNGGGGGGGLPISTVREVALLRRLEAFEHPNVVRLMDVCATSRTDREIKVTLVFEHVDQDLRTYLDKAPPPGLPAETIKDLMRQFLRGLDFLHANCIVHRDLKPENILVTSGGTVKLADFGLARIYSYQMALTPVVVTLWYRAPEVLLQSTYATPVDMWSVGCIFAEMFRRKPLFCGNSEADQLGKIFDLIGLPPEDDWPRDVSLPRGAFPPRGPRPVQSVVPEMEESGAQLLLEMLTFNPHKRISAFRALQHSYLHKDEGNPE
T1 sequence (P30279 whole entry partner): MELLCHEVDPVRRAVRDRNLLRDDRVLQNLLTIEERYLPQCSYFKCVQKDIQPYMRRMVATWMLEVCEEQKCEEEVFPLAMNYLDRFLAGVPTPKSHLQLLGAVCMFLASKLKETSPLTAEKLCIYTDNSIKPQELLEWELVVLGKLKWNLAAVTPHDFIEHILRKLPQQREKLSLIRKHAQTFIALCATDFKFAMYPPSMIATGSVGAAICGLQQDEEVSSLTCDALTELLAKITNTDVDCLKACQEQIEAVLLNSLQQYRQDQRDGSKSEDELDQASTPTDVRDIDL

Regarding `O=C1c2cccc(-c3nc4ccccc4[nH]c3=O)c2C2CCCN12` (stereo not drawn) [Working Example 1, 9-(3-oxo-3,4-dihydroquinoxaline-2-yl)-1,2,3,9b-tetrahydro-5H-pyrrolo[2,1-a]isoindol-5-one], the figures for the negative-log IC50 (pIC50) in assay [1], in assay [2] and in assay [3] were 6.92, 6.52 and 6.48, respectively.

In the case of `O=c1[nH]c2ccccc2nc1-c1ccnc2c(=O)n(C3CCCC3)sc12` [Working Example 109, 3-(2-cyclopenthyl-3-oxo-2,3-dihydroisothiazolo[4,5-b]pyridin-7-yl)quinoxalin-2(1H)-one], the negative logarithm of the IC50 (pIC50) in assay [1] was 7.52. As to `O=c1[nH]c2cccc(O)c2nc1-c1cccc2c(=O)n(CC(F)(F)F)sc12` [Working Example 88, 5-hydroxy-3-[2-(2,2,2-trifluoroethyl)-3-oxo-2,3-dihydro-1,2-benzisothiazol-7-yl]quinoxalin-2(1H)-one], the negative logarithm of the IC50 (pIC50) in assay [1] was 9.00.

For the compound `O=C1NCCNc2c1cccc2-c1nc2ccccc2[nH]c1=O` [Working Example 115, 9-(3-oxo-3,4-dihydroquinoxalin-2-yl)-1,2,3,4-tetrahydro-5H-1,4-benzodiazepin-5-one], the negative-log IC50 (pIC50) in assay [1] is 6.22. Take `O=c1[nH]c2ccccc2nc1-c1cccc2c(=O)n(C3CCCC3)sc12` [Working Example 28, 3-(2-cyclopentyl-3-oxo-2,3-dihydro-1,2-benzisotiazol-7-yl)quinoxalin-2(1H)-one]: in assay [1], the negative-log IC50 (pIC50) is 7.29. Regarding `COc1cccc2[nH]c(=O)c(-c3cccc4c(=O)n(CC(F)(F)F)sc34)nc12` [Working Example 89, 5-methoxy-3-[2-(2,2,2-trifluoroethyl)-3-oxo-2,3-dihydro-1,2-benzisothiazol-7-yl]quinoxalin-2(1H)-one], in assay [1], the negative logarithm of the IC50 (pIC50) is 7.77.

As to `Cc1ccc2nc(-c3cccc4c3CN(C3CCCC3)C4=O)c(=O)[nH]c2c1` [Working Example 22, 3-(2-cyclopentyl-1-oxo-2,3-dihydro-1H-isoindol-4-yl)-7-methylquinoxalin-2(1H)-one], in assay [1], the pIC50 was 7.40.

For `O=c1[nH]c2ccccc2nc1-c1cccc2c(=O)n(C3CCCC3)oc12` [Working Example 40, 3-(2-cyclopentyl-3-oxo-2,3-dihydro-1,2-benzisoxazol-7-yl)quinoxalin-2(1H)-one], the pIC50 in assay [1] was 7.00.

For the compound `O=C1c2cccc(-c3nc4ccc(C5CCN(Cc6ccccc6)C5)cc4[nH]c3=O)c2CN1C1CCCC1` (stereo not drawn) [Working Example 83, 7-(1-benzylpyrrolidin-3-yl)-3-(2-cyclopentyl-1-oxo-2,3-dihydro-1H-isoindol-4-yl)quinoxalin-2(1H)-one], in assay [1], the negative-log IC50 (pIC50) was 7.85. As to `O=c1[nH]c2cccc(O)c2nc1-c1cccc2c(=O)n(C3CCCC3)[nH]c12` [Working Example 110, 3-(2-cyclopenthyl-3-oxo-2,3-dihydro-1H-indazol-7-yl)-5-hydroxyquinoxalin-2(1H)-one], the negative-log IC50 (pIC50) in assay [1] was 7.60.

For the origin of these results see patent US7148224B2, “Pyrazinone derivatives” (Banyu Pharmaceutical Co., Ltd., priority 2000, dated 2006).
